Experimental findings from patent publication US9045415B2, “Targeting of EWS-FLI1 as anti-tumor therapy” (Georgetown University, priority 2006, dated 2015) are described below.

Some results are limits rather than exact numbers.

Data set [1] has as its system ESFT cell line CHP-100. The data set is described as follows: CHP-100 tumors in nude mice treated with YK-4-275. Type of data set: in vivo. To be noted: treated for 4 days when tumors palpable. Here is the method:
Nude mice were inoculated with ESFT cell line CHP-100. When tumors were palpable, animals were treated with YK-4-275 (NSC635437) for 4 days. Curves show tumor volumes over time.

Data set [2] deals with HEK293, HFK, and HEC. Put plainly: Nuclear fragmentation (DAPI), non-transformed cells. To be noted: 50 μM, 6 hours. Type of data set: cell-based. Here is the method: (§1) Cells were treated for 24 hours with 10 μM YK-4-279. The Caspase-3 substrate DEVD-AMC was incubated with equal amounts of protein lysate and fluorescence from cleaved substrate measured in a fluorimeter. TC32 and non-transformed cells HEK-293, HFK, and HEC were treated for 6 hours with high dose (50 μM) YK-4-279. DAPI stained cells were photographed at 600× using inverted fluorescence microscope.

Data set [3] deals with T1, EWS-FLI1 and RHA in TC32 cells (Homo sapiens, UniProt Q01543+Q01844).
T1 construct: endogenous in cells; host or cells: TC32 (ESFT cell line)
T1 sequence (Q01844+Q01543 fused): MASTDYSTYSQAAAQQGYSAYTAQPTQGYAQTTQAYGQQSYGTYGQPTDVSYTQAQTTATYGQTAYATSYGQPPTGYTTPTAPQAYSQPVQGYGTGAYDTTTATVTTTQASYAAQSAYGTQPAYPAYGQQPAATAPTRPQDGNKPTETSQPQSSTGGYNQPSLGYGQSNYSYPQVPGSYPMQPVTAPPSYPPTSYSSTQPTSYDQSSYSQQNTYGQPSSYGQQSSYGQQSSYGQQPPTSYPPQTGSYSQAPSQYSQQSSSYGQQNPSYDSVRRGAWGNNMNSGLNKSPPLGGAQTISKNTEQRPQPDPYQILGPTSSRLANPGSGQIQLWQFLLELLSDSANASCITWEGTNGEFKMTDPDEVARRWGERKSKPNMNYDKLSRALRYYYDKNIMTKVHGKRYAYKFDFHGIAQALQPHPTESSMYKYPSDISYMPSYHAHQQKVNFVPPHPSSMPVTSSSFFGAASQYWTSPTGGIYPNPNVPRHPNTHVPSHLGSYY
Put plainly: Co-precipitation of RHA with EWS-FLI1 from treated TC32 cells. It counts as cell-based. As for the experimental part: (§2) FIG. 32 provides data showing YK-4-279 reduces EWS-FLI1 functional activity. FIG. 32A concerns TC32 cells that were treated with YK-4-279 and resolved protein lysates and that were immunoblotted for co-precipitated RHA (top), EWS-FLI1 (middle), or total RHA (bottom).
Protein lysates and immunoprecipitations were performed as previously published (Uren et al (2005)). Recombinant GST-RHA (647-1075) was prepared from crude bacterial extracts without further purification.

Data set [4] deals with cell lines that lack EWSFLI1. The data set is described as follows: Cell growth (WST), cell lines that lack EWS-FLI1. To be noted: 72 h, 3 days. Type of data set: cell-based. As for the experimental part:
(§3) FIG. 33 provides data showing YK-4-279 is potent and specific inhibitor of ESFT. […] Cell number was measured by MTT or WST reduction after seven days in culture. […] FIG. 33D cell lines expressing EWS-FLI1 compared to non-EWS-FLI1 malignant cell lines following 3 days in culture to establish the IC50 using WST assay. […] Graph plots level of fluorescence in treated divided by untreated lysate. […] Scale bar equals 200 μm.

Data set [5] deals with EWS-FLI1 responsive NROB1 promoter. The data set is described as follows: Luciferase reporter assay of EWS-FLI1 responsive NROB1 promoter in COS7 cells. Type of data set: cell-based. To be noted: 3 and 10 μM, 18 hours. As for the experimental part: as §2
EGFP-E9R fusion constructs prepared as published (Frangioni, J. V. & Neel, B. G. Use of a general purpose mammalian expression vector for studying intracellular protein targeting: identification of critical residues in the nuclear lamin A/C nuclear localization signal. J Cell Sci 105 (Pt 2), 481-488 (1993)). We transiently transfect the NR0B131 luciferase reporter and full-length EWS-FLI1 into COS-7 cells with Fugene-6 (Roche) and luciferase assay performed per manufacturer's protocol (Dual Luciferase Kit, Promega). Six hours following transfection, cells were treated with either 3 or 10 μM YK-4-279. Cell lysates luciferase activity levels were standardized to renilla activity from a non-affected promoter and plotted as relative luciferase activity (RLA).
A general note: A reporter such as luciferase makes a cellular process visible.

Data set [6] relates to panel of ESFT cell lines. Put plainly: Cell growth (WST), panel of ESFT cell lines. To be noted: 72 h, 3 days. Type of data set: cell-based. As for the experimental part:
as §3

Data set [7] concerns ESFT xenografts (TC71 and CHP-100). Put plainly: ESFT orthotopic xenografts treated with YK-4-279. Type of data set: in vivo, mice. As for the experimental part: Xenografts were established with injection of either ESFT (CHP-100 or TC71) or Prostate cancer (PC3) cells. […] Single experiment growth curves depicted are representative of five independent experiments. […] Tumor volumes at day 14 after treatment initiation compared across 5 experiments (DMSO n=19, YK-4-279 n=25, p<0.0001, by Mann-Whitney test).
One million TC71 or CHP-100 cells in 100 μL HBSS were injected orthotopically into the gastrocnemius muscle of 4-8 week old SCID/bg mice (Taconic, Germantown, N.Y.). Prostate cancer xenografts were established by subcutaneous injection of 5 million PC3 cells into the flanks of 4-8 week old nude mice (Taconic). Mice were randomized to receive three times per week intraperitoneal injections of DMSO, YK-4-279 at 1.5 mg/dose when tumors were palpable. Each of the animal experiments was begun with 10 mice that were randomized into treatment and control groups when the tumors reached palpable size. In the control groups some tumors exceeded the IACUC maximal size (2 cm in any dimension) and were euthanized prior to day 14 and thus not included in the day 14 analysis (FIG. 6c). Tumor length and width were measured every 2-4 days and volume was calculated using the formula […] where D is the longest diameter and d is the shorter diameter. Xenograft studies were approved by the Memorial Sloan-Kettering Cancer Center Institutional Animal Care and Use Committee.

Data set [8] has as its system non-transformed keratinocytes (HFK) and ectocervical cells (HEC). The data set is described as follows: Viability (WST), non-transformed HFK and HEC. To be noted: Keratinocyte, 72 h; treated for 3 days. Type of data set: cell-based. As for the experimental part:
FIG. 39A provides data showing HEC and HFK, non-transformed endocervical cells and keritinocytes, treated with YK-4-279 for 72 hours and assayed for viability using WST reduction. FIG. 39B provides data showing TC71 cells treated for 16 hours with YK-4-279 or doxorubicin. Lysates were assayed for cleavage of AMC-DEVD by induced caspase-3 and fluorescence was measured. FIG. 39C provides data showing that RHA reduced TC71 cells were more resistant to YK-4-279 treatment than wild-type cells. FIG. 39D provides data showing an shRNA tet-inducible expression vector stably transfected into A673 (ESFT) cells to reduce EWS-FLI1 levels. FIG. 39E provides data showing that EWS-FLI1 reduced A673 cells were more resistant to YK-4-279 treatment than wild-type cells.

Data set [9] deals with GUES1. The data set is described as follows: Cell growth, primary ESFT line GUES1. It counts as cell-based. To be noted: Homo sapiens, 72 h; 3 days; read-out: anti-proliferative IC50. Here is the method:
as §3

Data set [10] concerns cyclin D levels in TC32 cells. Put plainly: Cyclin D immunoblot, TC32 cells. To be noted: TC32 cells treated for 14 hours. Type of data set: cell-based. A general note: In western blotting, separated proteins are transferred to a membrane and probed.
The subject of data set [11] is EWS-FLI1. The data set is described as follows: Fluorescence polarization assay, FITC-E9R displacement. It counts as binding. To be noted: 30 μM YK-4-279; 3.2 μM FITC-E9R.
Protocol: The assay was performed in 20 mM Tris, 500 mM NaCl, 0.67 M imidazole, pH 7.4. The fluorescence polarization was analyzed in a QuantaMaster fluorimeter (Photon Technology International, Ford, West Sussex, UK) equipped with polymer sheet polarizers at an excitation wavelength of 495 nm and emission wavelength of 517 nm. […] (3.2 μM, as determined from saturated binding curve) with the same buffer and instrumental settings as described above.
For data set [12], the system named is cyclin D levels in four non-EWS-FLI1 containing cell lines. The data set is described as follows: Cyclin D immunoblot, non-EWS-FLI1 containing cell lines. It counts as cell-based. To be noted: 10 μM overnight.
In data set [13] the test system is ESFT cell lines (TC32, A4573, TC71, and ES925). Put plainly: Caspase-3 activity (DEVD-AMC cleavage), ESFT cell lines. It counts as cell-based. To be noted: 24 hours. As for the experimental part:
as §1

Take `O=C(CC1(O)C(=O)Nc2c(Cl)ccc(Cl)c21)c1ccc(Cl)cc1` (centres unmarked) [NSC635437, 4,7-Dichloro-3-[2-(4-chlorophenyl)-2-oxoethyl]-3-hydroxyl-1,3-dihydro-2H-indol-2-one]: the melting point (as a rule, the temperature of the solid-liquid transition) lay in the range of 194 to 196 °C. Besides, the tumor growth result in data set [1] was “inhibition of tumor growth”.
As to `COc1ccc(C(=O)CC2(O)C(=O)Nc3c(Cl)ccc(Cl)c32)cc1` (centres unmarked) [YK-4-279, 4,7-Dichloro-3-hydroxy-3-[2-(4-methoxyphenyl)-2-oxoethyl]-1,3-dihydro-2H-indol-2-one], in data set [2], the “cell death (nuclear fragmentation)” value was “no cell death”. Besides, the “EWS-FLI1 and RHA protein levels” value in data set [3] is reported as “did not directly affect EWSFLI1 nor RHA levels”. Further, the “EWS-FLI1/RHA association in treated ESFT cells” value in data set [3] (by 10 μM) is reported as “dissociation of EWS-FLI1 from RHA”. Moreover, the IC50 (as a rule, the concentration that inhibits the measured activity by half) in data set [4] is more than 25 µM; in [6], 0.5 to 2 µM; in data set [8], more than 30 µM; in [9], 8 µM. For the same compound, in data set [5], the NROB1 promoter activity result is on record as “dose-dependent decrease in promoter activity”. The tumor growth entry in [7] (60-75 mg/kg) was “significantly reduced tumor growth”. Also, the tumor growth rate entry in data set [7] (CHP-100, 1.5 mg/dose i.p. three times per week) is “reduced”. Besides, the “increase in caspase-3 activity in tumors compared to control animals” value in data set [7] (CHP-100 xenograft tumors, immunohistochemistry) is 3 fold. In [7] (TC71 and CHP-100, 1.5 mg/dose), the “overall response, tumor volumes at day 14, five experiments” value is “marked overall tumor reduction”. Also, the “pathological analysis of treated animals” value in data set [7] (mouse, in vivo) was “did not show any signs of toxicity except changes related to IP injection”. The figures for the “cyclin D levels” value in data set [10] and in data set [12] were “nearly eliminated cyclin D levels” and “did not affect cyclin D levels”, respectively. In addition, the “displacement of FITC-E9R from EWS-FLI1” value in data set [11] was “complete displacement”. In data set [13] (TC32 cells, dose range), the caspase-3 activity result is on record as “rose in a dose dependent fashion”. In addition, the caspase-3 activation result in [13] (four ESFT cell lines, 10 μM) was “induced caspase-3 activity”.
